Assay results: ChEMBL document CHEMBL5465560, “Selectivity Literature for EUbOPEN Chemogenomic Library” (2024)

Columns and labels:
[1] = biological target: Acetylcholinesterase (Homo sapiens) (UniProt P22303); assay: Selectivity interaction (Panel of non-epigenetic targets (kinases, GPCRs, ion channels, and transporters, Eurofins) ) EUB0000271b ACHE; conditions: at 1 µM
[2] = biological target: Protein-tyrosine kinase 6 (Homo sapiens, UniProt Q13882); conditions: at 10 µM
[3] = biological target: Serine/threonine-protein kinase 24 (Homo sapiens) (UniProt Q9Y6E0); assay: Selectivity interaction (Ambit KINOMEscan and KiNATiv profiling in Jurkat cells) EUB0000090b STK24; assay type: cell-based; conditions: at 1 µM
Chain of Serine/threonine-protein kinase 24 (Homo sapiens) (Q9Y6E0 whole entry, looked up): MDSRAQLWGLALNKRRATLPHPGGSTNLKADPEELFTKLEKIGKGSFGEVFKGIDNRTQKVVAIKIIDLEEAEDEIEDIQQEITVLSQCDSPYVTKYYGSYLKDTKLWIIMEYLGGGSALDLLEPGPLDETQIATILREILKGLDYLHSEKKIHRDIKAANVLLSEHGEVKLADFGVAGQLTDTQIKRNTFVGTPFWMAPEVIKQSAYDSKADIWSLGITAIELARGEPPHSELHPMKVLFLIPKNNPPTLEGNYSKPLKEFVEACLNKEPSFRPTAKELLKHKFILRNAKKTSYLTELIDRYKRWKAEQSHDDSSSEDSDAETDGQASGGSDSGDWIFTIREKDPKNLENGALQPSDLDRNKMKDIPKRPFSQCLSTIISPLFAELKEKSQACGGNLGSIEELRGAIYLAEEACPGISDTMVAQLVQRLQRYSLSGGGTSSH

[4] = biological target: 5'-AMP-activated protein kinase catalytic subunit alpha-1 (Homo sapiens, UniProt Q13131); assay: Selectivity interaction (Kinase panel (literature)) EUB0001199aCl PRKAA1; conditions: at 1 µM
Chain of 5'-AMP-activated protein kinase catalytic subunit alpha-1 (Q13131 whole entry, looked up): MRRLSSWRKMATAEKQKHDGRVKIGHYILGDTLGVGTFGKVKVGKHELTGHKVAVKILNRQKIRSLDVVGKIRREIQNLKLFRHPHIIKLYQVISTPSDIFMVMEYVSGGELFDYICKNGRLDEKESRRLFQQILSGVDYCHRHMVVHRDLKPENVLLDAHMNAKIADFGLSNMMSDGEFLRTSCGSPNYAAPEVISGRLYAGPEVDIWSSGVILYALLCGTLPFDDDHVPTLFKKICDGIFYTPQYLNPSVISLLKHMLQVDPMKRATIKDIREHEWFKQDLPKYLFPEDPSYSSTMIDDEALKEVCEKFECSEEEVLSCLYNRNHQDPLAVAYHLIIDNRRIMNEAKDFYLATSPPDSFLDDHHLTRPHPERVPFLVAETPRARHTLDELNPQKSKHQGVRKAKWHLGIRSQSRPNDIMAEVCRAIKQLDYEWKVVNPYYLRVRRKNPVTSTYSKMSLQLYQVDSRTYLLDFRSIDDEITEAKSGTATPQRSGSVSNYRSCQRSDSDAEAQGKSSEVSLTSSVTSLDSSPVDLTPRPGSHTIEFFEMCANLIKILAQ

[5] = biological target: Tyrosine-protein kinase receptor Tie-1 (Homo sapiens) (UniProt P35590); assay: Selectivity interaction (KinomeScan (DiscoverX)) EUB0000655a TIE1; conditions: at 10 µM
Chain of Tyrosine-protein kinase receptor Tie-1 (Homo sapiens) (P35590 whole entry): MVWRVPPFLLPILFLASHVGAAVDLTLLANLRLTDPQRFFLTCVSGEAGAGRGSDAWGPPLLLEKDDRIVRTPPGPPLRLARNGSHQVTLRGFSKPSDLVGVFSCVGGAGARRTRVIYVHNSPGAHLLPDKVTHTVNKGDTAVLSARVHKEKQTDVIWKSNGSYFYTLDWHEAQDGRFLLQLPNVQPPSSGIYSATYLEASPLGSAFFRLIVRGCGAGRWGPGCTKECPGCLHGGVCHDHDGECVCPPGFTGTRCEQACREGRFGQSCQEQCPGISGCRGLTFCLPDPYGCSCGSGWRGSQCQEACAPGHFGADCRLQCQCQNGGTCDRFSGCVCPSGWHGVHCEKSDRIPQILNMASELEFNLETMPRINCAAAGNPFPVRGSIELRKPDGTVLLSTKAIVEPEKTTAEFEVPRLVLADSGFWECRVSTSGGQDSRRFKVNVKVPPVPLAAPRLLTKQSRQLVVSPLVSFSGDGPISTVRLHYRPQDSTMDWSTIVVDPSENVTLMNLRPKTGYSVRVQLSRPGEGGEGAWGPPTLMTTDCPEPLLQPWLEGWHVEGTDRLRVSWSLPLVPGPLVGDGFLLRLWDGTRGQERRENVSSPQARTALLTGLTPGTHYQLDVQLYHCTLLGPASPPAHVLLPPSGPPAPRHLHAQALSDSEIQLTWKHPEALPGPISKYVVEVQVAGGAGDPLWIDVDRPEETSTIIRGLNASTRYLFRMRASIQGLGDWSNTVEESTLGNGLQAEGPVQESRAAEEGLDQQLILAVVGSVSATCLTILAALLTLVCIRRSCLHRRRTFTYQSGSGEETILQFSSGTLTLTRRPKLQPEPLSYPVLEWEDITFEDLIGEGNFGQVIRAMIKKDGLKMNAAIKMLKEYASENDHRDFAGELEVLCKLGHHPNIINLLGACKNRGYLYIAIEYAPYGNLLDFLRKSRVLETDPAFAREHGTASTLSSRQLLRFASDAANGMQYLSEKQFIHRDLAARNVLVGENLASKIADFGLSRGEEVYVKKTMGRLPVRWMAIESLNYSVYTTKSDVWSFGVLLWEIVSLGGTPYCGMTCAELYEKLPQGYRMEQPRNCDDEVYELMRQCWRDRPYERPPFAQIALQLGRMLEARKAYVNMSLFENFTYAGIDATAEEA

[6] = biological target: Ribosomal protein S6 kinase alpha-5 (Homo sapiens) (UniProt O75582); assay: Selectivity interaction (KinomeScan (DiscoverX)) EUB0000618a RPS6KA5; conditions: at 10 µM
[7] = biological target: Serine/threonine-protein kinase 24 (Homo sapiens) (UniProt Q9Y6E0); assay: Selectivity interaction (SelectScreen profiling (Invitrogen)) EUB0000607a STK24; conditions: at 2 µM
[8] = biological target: Tyrosine-protein kinase receptor Tie-1 (Homo sapiens) (UniProt P35590); assay: Selectivity interaction (KinomeScan (DiscoverX)) EUB0000045b TIE1
[9] = biological target: Tyrosine-protein kinase CSK (Homo sapiens) (UniProt P41240); conditions: at 10 µM
[10] = biological target: NT-3 growth factor receptor (Homo sapiens, UniProt Q16288); assay: Selectivity interaction (Kinase panel (Invitrogen)) EUB0000639a NTRK3; conditions: at 200 nM
[11] = biological target: Serine/threonine-protein kinase 32C (Homo sapiens) (UniProt Q86UX6); assay: Selectivity interaction (ActivX KiNativ screen (kinase selectivity in THP-1 cell lysates)) EUB0000639a STK32C; assay type: subcellular; conditions: lysate
Chain of Serine/threonine-protein kinase 32C (Homo sapiens) (Q86UX6 whole entry): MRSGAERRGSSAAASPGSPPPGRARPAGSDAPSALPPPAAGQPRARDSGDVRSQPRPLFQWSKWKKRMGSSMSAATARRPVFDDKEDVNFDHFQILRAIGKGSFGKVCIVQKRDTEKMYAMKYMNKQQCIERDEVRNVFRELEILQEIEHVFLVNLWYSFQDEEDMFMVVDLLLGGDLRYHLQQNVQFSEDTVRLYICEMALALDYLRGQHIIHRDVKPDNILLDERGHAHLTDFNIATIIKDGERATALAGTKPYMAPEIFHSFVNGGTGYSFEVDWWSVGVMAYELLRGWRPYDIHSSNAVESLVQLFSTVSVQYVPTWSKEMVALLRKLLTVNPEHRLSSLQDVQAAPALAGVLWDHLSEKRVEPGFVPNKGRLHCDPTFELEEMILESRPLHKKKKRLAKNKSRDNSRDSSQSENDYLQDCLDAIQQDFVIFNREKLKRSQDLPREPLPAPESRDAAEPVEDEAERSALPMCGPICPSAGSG

[12] = biological target: T1, SNF-related serine/threonine-protein kinase (Homo sapiens) (UniProt Q9NRH2); assay: Selectivity interaction (ActivX KiNativ screen (kinase selectivity in THP-1 cell lysates)) EUB0000639a SNRK; assay type: subcellular; conditions: lysate, at 0.01 µM
T1 sequence (whole entry): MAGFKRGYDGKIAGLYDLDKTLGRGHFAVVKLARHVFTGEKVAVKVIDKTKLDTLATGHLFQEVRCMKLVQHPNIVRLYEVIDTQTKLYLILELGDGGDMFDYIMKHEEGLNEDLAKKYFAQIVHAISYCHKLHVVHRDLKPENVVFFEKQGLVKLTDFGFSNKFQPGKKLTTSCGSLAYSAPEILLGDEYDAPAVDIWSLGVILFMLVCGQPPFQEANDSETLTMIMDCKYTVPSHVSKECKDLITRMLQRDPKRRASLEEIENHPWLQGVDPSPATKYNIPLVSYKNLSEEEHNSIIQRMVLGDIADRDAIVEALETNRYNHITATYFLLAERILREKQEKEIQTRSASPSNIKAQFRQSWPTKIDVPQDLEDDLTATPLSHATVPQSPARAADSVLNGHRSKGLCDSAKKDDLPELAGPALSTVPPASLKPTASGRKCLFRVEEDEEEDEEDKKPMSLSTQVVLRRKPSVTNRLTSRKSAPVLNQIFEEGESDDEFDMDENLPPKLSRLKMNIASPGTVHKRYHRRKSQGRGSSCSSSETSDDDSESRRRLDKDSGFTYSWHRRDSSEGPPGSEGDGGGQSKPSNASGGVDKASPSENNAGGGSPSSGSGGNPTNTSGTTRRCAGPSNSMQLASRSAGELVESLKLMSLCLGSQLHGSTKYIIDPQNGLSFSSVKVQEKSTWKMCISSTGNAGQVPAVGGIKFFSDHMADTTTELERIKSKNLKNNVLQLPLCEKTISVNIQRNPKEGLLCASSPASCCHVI

[13] = biological target: Fibroblast growth factor receptor 2 (Homo sapiens) (UniProt P21802); assay: Selectivity interaction (KinomeScan (DiscoverX)) EUB0000229b FGFR2; conditions: at 10 µM
Chain of Fibroblast growth factor receptor 2 (Homo sapiens) (P21802 22-821 limits assumed): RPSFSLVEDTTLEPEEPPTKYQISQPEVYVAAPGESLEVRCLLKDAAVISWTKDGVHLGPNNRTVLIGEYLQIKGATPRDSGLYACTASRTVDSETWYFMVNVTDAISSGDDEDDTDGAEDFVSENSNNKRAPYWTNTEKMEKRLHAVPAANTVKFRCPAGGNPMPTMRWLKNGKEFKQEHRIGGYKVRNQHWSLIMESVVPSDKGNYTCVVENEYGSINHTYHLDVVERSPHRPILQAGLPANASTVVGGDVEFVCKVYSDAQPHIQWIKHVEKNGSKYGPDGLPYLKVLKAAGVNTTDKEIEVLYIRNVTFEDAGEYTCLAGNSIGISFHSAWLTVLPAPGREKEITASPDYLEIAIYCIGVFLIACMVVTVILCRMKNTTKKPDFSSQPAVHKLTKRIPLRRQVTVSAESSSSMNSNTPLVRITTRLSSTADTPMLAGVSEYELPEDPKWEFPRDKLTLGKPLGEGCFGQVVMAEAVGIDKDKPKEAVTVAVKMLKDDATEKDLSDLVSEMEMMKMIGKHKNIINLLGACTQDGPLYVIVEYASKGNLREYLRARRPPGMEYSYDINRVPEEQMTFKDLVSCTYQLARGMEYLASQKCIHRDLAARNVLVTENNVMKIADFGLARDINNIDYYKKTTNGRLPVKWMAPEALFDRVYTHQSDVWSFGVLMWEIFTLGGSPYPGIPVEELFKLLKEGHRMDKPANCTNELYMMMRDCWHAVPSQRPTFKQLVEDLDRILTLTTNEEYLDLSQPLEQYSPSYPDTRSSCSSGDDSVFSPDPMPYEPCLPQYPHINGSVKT

[14] = biological target: Mitogen-activated protein kinase kinase kinase kinase 1 (Homo sapiens) (UniProt Q92918); assay: Selectivity interaction (KinomeScan (DiscoverX)) EUB0000229b MAP4K1; conditions: at 10 µM
[15] = biological target: Serine/threonine-protein kinase NIM1 (Homo sapiens, UniProt Q8IY84); assay: Selectivity interaction (KinomeScan (DiscoverX)) EUB0001049a NIM1K; conditions: at 1 µM
Chain of Serine/threonine-protein kinase NIM1 (Q8IY84 whole entry): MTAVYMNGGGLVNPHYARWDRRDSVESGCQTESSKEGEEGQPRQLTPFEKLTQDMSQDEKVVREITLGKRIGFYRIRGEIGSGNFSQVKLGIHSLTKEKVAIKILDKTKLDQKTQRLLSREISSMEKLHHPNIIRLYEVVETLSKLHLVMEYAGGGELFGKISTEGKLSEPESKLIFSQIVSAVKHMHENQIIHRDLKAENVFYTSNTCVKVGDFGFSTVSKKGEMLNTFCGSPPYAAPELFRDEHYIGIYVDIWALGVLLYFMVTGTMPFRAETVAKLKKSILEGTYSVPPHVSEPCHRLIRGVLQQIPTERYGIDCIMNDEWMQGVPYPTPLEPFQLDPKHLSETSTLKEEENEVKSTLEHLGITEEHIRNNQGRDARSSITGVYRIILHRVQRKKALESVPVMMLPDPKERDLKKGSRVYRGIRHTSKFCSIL

[16] = biological target: Serine/threonine-protein kinase 38 (Homo sapiens) (UniProt Q15208); assay: Selectivity interaction (KinomeScan (DiscoverX)) EUB0000666a STK38; conditions: at 10 µM
Chain of Serine/threonine-protein kinase 38 (Homo sapiens) (Q15208 2-465 limits assumed): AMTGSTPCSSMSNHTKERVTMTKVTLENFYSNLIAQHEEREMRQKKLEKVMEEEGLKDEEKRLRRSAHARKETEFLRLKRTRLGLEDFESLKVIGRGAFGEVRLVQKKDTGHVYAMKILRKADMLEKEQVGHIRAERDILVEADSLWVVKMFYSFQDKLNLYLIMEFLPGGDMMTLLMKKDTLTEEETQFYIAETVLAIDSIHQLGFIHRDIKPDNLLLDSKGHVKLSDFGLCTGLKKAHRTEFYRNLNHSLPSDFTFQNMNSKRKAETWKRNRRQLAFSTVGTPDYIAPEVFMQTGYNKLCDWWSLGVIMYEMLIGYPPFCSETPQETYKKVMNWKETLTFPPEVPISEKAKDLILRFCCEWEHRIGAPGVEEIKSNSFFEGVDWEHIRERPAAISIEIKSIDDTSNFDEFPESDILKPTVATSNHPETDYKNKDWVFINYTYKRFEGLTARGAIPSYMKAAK

[17] = biological target: Dual specificity protein kinase CLK3 (Homo sapiens, UniProt P49761); assay: Selectivity interaction (Kinase panel (Z-LYTE Assay)) EUB0001632a CLK3; conditions: at 10 µM
Chain of Dual specificity protein kinase CLK3 (P49761 whole entry, looked up): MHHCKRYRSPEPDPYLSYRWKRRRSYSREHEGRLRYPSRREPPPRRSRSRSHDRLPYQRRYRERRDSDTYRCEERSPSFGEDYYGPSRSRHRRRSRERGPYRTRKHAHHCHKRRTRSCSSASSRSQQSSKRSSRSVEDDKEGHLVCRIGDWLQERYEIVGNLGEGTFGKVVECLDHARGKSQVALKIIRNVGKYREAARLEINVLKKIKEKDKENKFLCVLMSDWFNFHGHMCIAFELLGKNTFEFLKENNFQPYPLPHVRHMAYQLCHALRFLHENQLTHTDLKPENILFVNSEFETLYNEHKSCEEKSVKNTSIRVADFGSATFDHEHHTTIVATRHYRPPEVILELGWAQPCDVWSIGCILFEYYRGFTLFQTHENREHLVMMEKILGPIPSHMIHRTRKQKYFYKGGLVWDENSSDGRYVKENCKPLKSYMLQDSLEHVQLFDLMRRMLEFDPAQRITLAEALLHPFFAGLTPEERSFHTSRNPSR

**Q.** How did the % of inhibition [1] turn out when `Cc1cc(C)cc([C@@H]2c3cc(C)ccc3NC(=O)CN2C(=O)c2ccc(Br)s2)c1` was run?
**A.** 7%

**Q.** For `CCN(CC)CCCCNc1ncc2cc(-c3cc(OC)cc(OC)c3)c(NC(=O)NC(C)(C)C)nc2n1`, which % of control [2] is on record?
**A.** 100%

**Q.** `CN(C)C/C=C/C(=O)Nc1ccc(C(=O)N2CCCC(Nc3ncc(Cl)c(-c4c[nH]c5ccccc45)n3)C2)cc1` (configuration not stated) was tested. Which % of control [3] did it give?
**A.** 94%

**Q.** Which % of inhibition [4] does the source give for `CN1Cc2nccc(-c3cn(C)nc3-c3ccc(F)cc3)c2C1=O` here?
**A.** 3%

**Q.** For `CN(C)CCOc1ccc(-c2nc(-c3ccncc3)c(-c3ccc4c(c3)CC/C4=N\O)[nH]2)cc1`, which % of control [5] is on record?
**A.** 44%

**Q.** `O[C@H]1CC[C@H](Nc2ncc3nc(Nc4c(F)cc(F)cc4F)n([C@H]4CCOC4)c3n2)CC1` was tested. Which % of control [6] did it give?
**A.** 100%

**Q.** `CNC(=O)Nc1ccc(-c2nc(N3CC4CCC(C3)O4)c3cnn(C4CCC5(CC4)OCCO5)c3n2)cc1` was tested. Which % of inhibition [7] did it give?
**A.** -1%

**Q.** For `C=CC(=O)Nc1cc(-n2c(=O)ccc3cnc4ccc(-c5ccc(NS(C)(=O)=O)cc5)cc4c32)ccc1C`, which % of control ([8]; at 1 µM) is on record?
**A.** 100%

**Q.** And the % of control ([8]; at 10 µM)?
**A.** 89%

**Q.** How did the % of control [9] turn out when `Cc1cc([C@@H](C)Nc2ccccc2C(=O)O)c2nc(N3CCOCC3)cc(=O)n2c1` [AZD-6482] was run?
**A.** 100%

**Q.** Which results are given for `CC[C@@H]1[C@H](F)C(=O)N[C@@H]1COc1nccc2cc(C(N)=O)c(OC)cc12` [ZIMLOVISERTIB]?
**A.** % of inhibition [10]: 21.9%; % of inhibition ([11]; at 0.01 µM): -1.5%; % of inhibition ([11]; at 0.04 µM): -7.2%; % of inhibition ([11]; at 0.2 µM): -0.3%; % of inhibition ([11]; at 1 µM): -5.2%; % of inhibition ([11]; at 5 µM): -11.5%; % of inhibition [12]: 0.6%

**Q.** How did the % binding [13] turn out when `COc1cc(N(C)c2ccnc3ccc(C(F)(F)F)cc23)cc(OC)c1OC` was run?
**A.** 100%

**Q.** What about the % binding [14] of the same molecule?
**A.** 96%

**Q.** Which % of control [15] does the source give for `COc1cc(Nc2nc(C)cc(-c3cnn4nc(OC)ccc34)n2)cc(C(F)(F)F)c1` here?
**A.** 94%

**Q.** With `O=C(NOC[C@H](O)CO)c1ccc(F)c(F)c1Nc1ccc(I)cc1F` as the molecule, how does the % of control [16] read?
**A.** 100%

**Q.** With `Cn1cc(-n2cnc3c(NCc4nc5cc(Cl)c(Cl)cc5[nH]4)nc(N4CCOCC4)nc32)cn1` as the molecule, how does the % of control [17] read?
**A.** 8.16%
